The text below walks through data of patent US11161819B2, “Substituted tetrahydroisoquinoline compounds useful as GPR120 agonists” (Merck Sharp & Dohme Corp., priority 2016, dated 2021).

The experiment has as its target T1, human GPR120 (Homo sapiens, UniProt Q5NUL3).
T1 construct: expressed in transfected cells
T1 sequence (Q5NUL3 1-361): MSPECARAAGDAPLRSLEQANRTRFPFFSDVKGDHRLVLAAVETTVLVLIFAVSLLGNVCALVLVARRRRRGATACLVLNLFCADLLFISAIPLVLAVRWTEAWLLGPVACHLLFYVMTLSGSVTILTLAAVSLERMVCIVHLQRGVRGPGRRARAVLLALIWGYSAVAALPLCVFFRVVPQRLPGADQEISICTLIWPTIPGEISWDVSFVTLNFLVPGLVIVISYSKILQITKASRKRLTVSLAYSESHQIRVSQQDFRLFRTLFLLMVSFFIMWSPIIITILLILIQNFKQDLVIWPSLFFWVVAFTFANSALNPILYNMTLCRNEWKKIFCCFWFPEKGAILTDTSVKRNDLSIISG
As to the kind of experiment: Human GPR120 IP1 Assay (inositol phosphate turnover, CisBio IP-One kit). Type of experiment: cell-based. Conditions: IP1 accumulation in CHO-K1 cells stably expressing the short form of human GPR120; 60 min compound incubation; 4-parameter fit; read-out: hGPR120 EC50. In outline: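 CHO-K1 cells stably expressing short-form human GPR120 were stimulated with compounds for 60 minutes at 37 degrees in stimulation buffer. IP1 accumulation measured by HTRF competitive immunoassay (665/620 nm ratio) against an IP1 standard curve, normalized to a reference compound; EC50 from 4-parameter fit.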

Structures are written as SMILES.

Regarding `Cc1ccc(-n2nc(C)c(F)c2N2CCc3cc(C4CC4C(=O)O)ccc3C2)cc1` (stereo not drawn) [Example 94, 2-{2-[4-fluoro-3-methyl-1-(4-methylphenyl)-1H-pyrazol-5-yl]-1,2,3,4-tetrahydroisoquinolin-6-yl}cyclo-propanecarboxylic acid], the EC50 stood at 473 nM.
Then `Cc1nn(-c2ccc(F)cc2)c(N2CCc3cc(C4CC4C(=O)O)ccc3C2)c1F` (stereo not drawn) [Example 95, 2-{2-[4-fluoro-1-(4-fluorophenyl)-3-methyl-1H-pyrazol-5-yl]-1,2,3,4-tetrahydroisoquinolin-6-yl} cyclo-propanecarboxylic acid], with 491 nM; and `Cc1ccc(-n2nc(C)c(F)c2N2CCc3cc(C4CC4C(=O)O)ccc3C2)cc1` (stereo not drawn) [Example 96, 2-{2-[4-fluoro-3-methyl-1-(4-methylphenyl)-1H-pyrazol-5-yl]-1,2,3,4-tetrahydroisoquinolin-6-yl}cyclopropanecarboxylic acid], with 834 nM; and `COc1cc(O[C@H]2C[C@H](OC)C2)cc(N2CCc3cc([C@H]4C[C@@H]4C(=O)O)ccc3C2)c1C#N` [Example 97, (1S,2S)-2-(2-{2-cyano-3-methoxy-5-[(trans-3-methoxycyclobutyl)oxy]phenyl}-1,2,3,4-tetrahydroisoquinolin-6-yl) cyclopropanecarboxylic acid], with 1580 nM.
Consider `C[C@H]1C[C@H](Oc2cc(F)c(F)c(N3CCc4cc([C@H]5C[C@@H]5C(=O)O)ccc4C3)c2)C1` [Example 98, (1S,2S)-2-(2-{2,3-difluoro-5-[(trans-3-methylcyclobutyl)oxy]phenyl}-1,2,3,4-tetrahydroiso-quinolin-6-yl)-cyclopropane-carboxylic acid], for which the EC50 came to 100 nM.
Then `CO[C@H]1C[C@H](Oc2cc(F)c(F)c(N3CCc4cc([C@@H]5C[C@H]5C(=O)O)ccc4C3)c2)C1` [Example 99, (1R,2R)-2-(2-{2,3-difluoro-5-[(trans-3-methoxycyclobutyl)oxy]phenyl}-1,2,3,4-tetrahydro-isoquinolin-6-yl)-cyclopropanecarboxylic acid], with 127 nM; and `CO[C@H]1C[C@H](Oc2cc(F)c(F)c(N3CCc4cc([C@H]5C[C@@H]5C(=O)O)ccc4C3)c2)C1` [Example 100, (1S,2S)-2-(2-{2,3-difluoro-5-[(trans-3-methoxycyclobutyl)oxy]phenyl}-1,2,3,4-tetrahydroiso-quinolin-6-yl)-cyclopropanecarboxylic acid], with 251 nM.
As for `C[C@H]1C[C@H](Oc2cc(F)c(F)c(N3CCc4cc([C@@H]5C[C@H]5C(=O)O)ccc4C3)c2)C1` [Example 101, (1R,2R)-2-(2-{2,3-difluoro-5-[(trans-3-methylcyclobutyl)oxy]phenyl}-1,2,3,4-tetrahydroiso-quinolin-6-yl)-cyclopropane-carboxylic acid], the figure is 273 nM; as for `O=C(O)C1CC1c1ccc2c(c1)CCN(c1cc(OC(F)(F)F)ccc1F)C2` (stereo not drawn) [Example 102, 2-{2-[2-fluoro-5-(trifluoromethoxy)phnyl]-1,2,3,4-tetrahydroisoquinolin-6-yl}cyclopropane-carboxylic acid], 118 nM; as for `CO[C@H]1C[C@H](Oc2cc(F)c(C#N)c(N3CCc4cc([C@@H]5C[C@H]5C(=O)O)ccc4C3)c2)C1` [Example 103, (1R,2R)-2-(2-{2-cyano-3-fluoro-5-[(trans-3-methoxycyclobutyl)oxy]phenyl}-1,2,3,4-tetrahydroiso-quinolin-6-yl)cyclopropane-carboxylic acid], 3000 nM.
As to `O=C(O)C1CC1c1ccc2c(c1)CCN(c1cc(OC(F)(F)F)cc(Cl)c1F)C2` (stereo not drawn) [Example 104, 2-{2-[3-chloro-2-fluoro-5-(trifluoro-methoxy)phenyl]-1,2,3,4-tetra-hydroisoquinolin-6-yl}cyclo-propane-carboxylic acid], the EC50 stood at 4040 nM.
Then `O=C(O)C1CC1c1ccc2c(c1)CCN(c1cc(OC(F)(F)F)cc(Cl)c1F)C2` (stereo not drawn) [Example 105, 2-{2-[3-chloro-2-fluoro-5-(trifluoro-methoxy)phenyl]-1,2,3,4-tetra-hydroisoquinolin-6-yl}cyclo-propane-carboxylic acid], with 6610 nM.
As for `CO[C@H]1C[C@H](Oc2cc(F)c(F)c(N3CCc4c(ccc([C@H]5C[C@@H]5C(=O)O)c4F)C3)c2)C1` [Example 106, (1 S,2S)-2-(2-(2,3-difluoro-5-((1 r,3S)-3-methoxycyclobutoxy)phenyl)-5-fluoro-1,2,3,4-tetra-hydroisoquinolin-6-yl)cyclopropanecarboxylic acid], the figure is 83 nM; as for `N#Cc1cc(OC(F)(F)F)cc(N2CCc3c(ccc([C@H]4C[C@@H]4C(=O)O)c3F)C2)c1F` [Example 107, (1S,2S)-2-(2-(3-cyano-2-fluoro-5-(trifluoromethoxy)phenyl)-5-fluoro-1,2,3,4-tetrahydroisoquinolin-6-yl)cyclopropanecarboxylic acid], 122 nM; as for `C[C@H]1C[C@H](Oc2cc(F)c(F)c(N3CCc4c(ccc([C@H]5C[C@@H]5C(=O)O)c4F)C3)c2)C1` [Example 108, (1S,2S)-2-(2-(2,3-difluoro-5-((1r,3S)-3-methylcyclobutoxy)phenyl)-5-fluoro-1,2,3,4-tetra-hydroisoquinolin-6-yl)cyclopropanecarboxylic acid], 122 nM.
As for `N#Cc1cc(OC(F)(F)F)cc(N2CCc3c(ccc([C@@H]4C[C@H]4C(=O)O)c3F)C2)c1F` [Example 109, (1R,2R)-2-{2-[3-cyano-2-fluoro-5-(trifluoromethoxy)phenyl]-5-fluoro-1,2,3,4-tetrahydroisoquinolin-6-yl}cyclopropane-carboxylic acid], the figure is 22 nM; as for `CO[C@H]1C[C@H](Oc2cc(F)c(F)c(N3CCc4c(ccc([C@@H]5C[C@H]5C(=O)O)c4F)C3)c2)C1` [Example 110, (1R,2R)-2-(2-{2,3-difluoro-5-[(trans-3-methoxycyclobutyl)oxy]phenyl}-5-fluoro-1,2,3,4-tetrahydroisoquinolin-6-yl)-cyclopropanecarboxylic acid], 42 nM; as for `O=C(O)[C@@H]1C[C@H]1c1ccc2c(c1F)CCN(c1cc(OC(F)(F)F)cc(Cl)c1F)C2` [Example 111, (1R,2R)-2-{2-[3-chloro-2-fluoro-5-(trifluoromethoxy)-phenyl]-5-fluoro-1,2,3,4-tetrahydroisoquinolin-6-yl}cyclo-propanecarboxylic acid], 32 nM.
Turning to `C[C@H]1C[C@H](Oc2cc(F)c(F)c(N3CCc4c(ccc([C@@H]5C[C@H]5C(=O)O)c4F)C3)c2)C1` [Example 112, (1R,2R)-2-(2-{2,3-difluoro-5-[(trans-3-methylcyclobutyl)oxy]phenyl}-5-fluoro-1,2,3,4-tetrahydroisoquinolin-6-yl) cyclopropanecarboxylic acid], the concentration for a half-maximal effect (EC50) is 42 nM.
Turning to `O=C(O)[C@@H]1C[C@H]1c1ccc2c(c1F)CCN(c1cc(OC(F)(F)F)ccc1F)C2` [Example 113], the 50% effective concentration (EC50) is 59 nM.
Then `O=C(O)[C@@H]1C[C@H]1c1ccc2c(c1)CCN(c1cc(OC3CCC3)cc(Cl)c1F)C2` [Example 114, (1R,2R)-2-{2-[3-chloro-5-(cyclobutyloxy)-2-fluorophenyl]-1,2,3,4-tetrahydroisoquinolin-6-yl} cyclopropanecarboxylic acid], with 61 nM.
Then `N#Cc1cc(OC(F)(F)F)cc(N2CCc3c(ccc([C@H]4C[C@@H]4C(=O)O)c3F)C2)c1F` [Example 116, (1S,2S)-2-{2-[3-cyano-2-fluoro-5-(trifluoromethoxy)phenyl]-5-fluoro-1,2,3,4-tetrahydroiso-quinolin-6-yl}cyclopropane-carboxylic acid], with 107 nM; and `N#Cc1ccc(OC(F)(F)F)cc1N1CCc2c(ccc([C@H]3C[C@@H]3C(=O)O)c2F)C1` [Example 117, (1S,2S)-2-{2-[2-cyano-5-(trifluoromethoxy)phenyl]-5-fluoro-1,2,3,4-tetrahydroisoquinolin-6-yl} cyclopropane-carboxylic acid], with 143 nM; and `O=C(O)[C@H]1C[C@@H]1c1ccc2c(c1F)CCN(c1cc(OC(F)(F)F)ccc1F)C2` [Example 118, (1S,2S)-2-{5-fluoro-2-[2-fluoro-5-(trifluoromethoxy)phenyl]-1,2,3,4-tetrahydroisoquinolin-6-yl} cyclopropane-carboxylic acid], with 215 nM.
As for `N#Cc1c(F)cc(OC(F)(F)F)cc1N1CCc2c(ccc([C@H]3C[C@@H]3C(=O)O)c2F)C1` [Example 119, (1S,2S)-2-{2-[2-cyano-3-fluoro-5-(trifluoromethoxy)phenyl]-5-fluoro-1,2,3,4-tetrahydroisoquinolin-6-yl}cyclopropane-carboxylic acid], the figure is 273 nM; as for `O=C(O)[C@H]1C[C@@H]1c1ccc2c(c1F)CCN(c1cc(OC(F)(F)F)cc(Cl)c1F)C2` [Example 120, (1S,2S)-2-{2-[3-chloro-2-fluoro-5-(trifluoromethoxy)phenyl]-5-fluoro-1,2,3,4-tetrahydroisoquinolin-6-yl}cyclopropane-carboxylic acid], 299 nM.
In the case of `O=C(O)[C@@H]1C[C@H]1c1ccc2c(c1F)CCN(c1cc(OC(F)(F)F)cc(F)c1Cl)C2` [Example 121, (1R,2R)-2-{2-[2-chloro-3-fluoro-5-(trifluoromethoxy)phenyl]-5-fluoro-1,2,3,4-tetra-hydroisoquinolin-6-yl}cyclo-propanecarboxylic acid], the EC50 was 73 nM.
